Experimental data published in patent US20180303807A1, “ANDROGEN RECEPTOR LIGANDS” (DUKE UNIVERSITY, priority 2015, published 2018).
Residue numbers refer to the chain shown, from its start.

Key:
Type in all cases: cell-based
[1] = test system: AR; experiment: Real-time PCR of AR target gene transcription in LNCaP-AR (AR overexpressing) cells, CRPC model; design: key to B5 = Relative antagonist activity (plus 0.1 nM R1881) of test compounds (20 μM) in AR overexpressing LNCaP cells (NKX3.1 AR target gene) / B7 = Relative antagonist activity (plus 0.1 nM R1881) of test compounds (20 μM) in AR overexpressing LNCaP cells (PSA AR target gene): a score of 1 indicates higher antagonist efficacy (highly desired activity) than benchmark compound enzalutamide; a score of 2 indicates equal antagonist efficacy to enzalutamide (desirable); a score of 3 indicates antagonist efficacy between enzalutamide and bicalutamide (less desirable activity); a score of 4 indicates antagonist efficacy equal to bicalutamide (liability); a score of 5 indicates antagonist efficacy worse than bicalutamide (liability); key to B4 = Relative agonist activity (no R1881) of test compounds (20 μM) in AR overexpressing LNCaP cells (NKX3.1 AR target gene) / B6 Relative agonist activity (no R1881) of test compounds (20 μM) in AR overexpressing LNCaP cells (PSA AR target gene): a score of 1 indicates less agonism (highly desired activity) than benchmark compound enzalutamide; a score of 2 indicates equal agonism to enzalutamide (desirable); a score of 3 indicates agonism between enzalutamide and bicalutamide (less desirable activity); a score of 4 indicates equal agonism to bicalutamide (liability); a score of 5 indicates higher agonism than bicalutamide (liability); details: for B4 = Relative agonist activity (no R1881) of test compounds (20 μM) in AR overexpressing LNCaP cells (NKX3.1 AR target gene): no R1881, NKX3.1 gene; for B4 = Relative agonist activity (no R1881) of test compounds (20 μM) in AR overexpressing LNCaP cells (NKX3.1 AR target gene) / B6 Relative agonist activity (no R1881) of test compounds (20 μM) in AR overexpressing LNCaP cells (PSA AR target gene) / B5 = Relative antagonist activity (plus 0.1 nM R1881) of test compounds (20 μM) in AR overexpressing LNCaP cells (NKX3.1 AR target gene) / B7 = Relative antagonist activity (plus 0.1 nM R1881) of test compounds (20 μM) in AR overexpressing LNCaP cells (PSA AR target gene): score vs enzalutamide/bicalutamide; for B5 = Relative antagonist activity (plus 0.1 nM R1881) of test compounds (20 μM) in AR overexpressing LNCaP cells (NKX3.1 AR target gene): plus 0.1 nM R1881, NKX3.1 gene; for B7 = Relative antagonist activity (plus 0.1 nM R1881) of test compounds (20 μM) in AR overexpressing LNCaP cells (PSA AR target gene): plus 0.1 nM R1881, PSA gene
Experimental: Real-Time PCR (CRPC model of AR overexpressing prostate cancer cells, Table 2, B4-B7). LNCaP-AR (AR overexpressing cells) cells were seeded in 12-well plates in RPMI 1640 (8% charcoal-stripped fetal calf serum (CFS)). […] AR target gene transcription (PSA, NKX3.1, FKBP5) was assessed by realtime PCR.
For B4-B7, scoring system is based on the relative AR target gene agonist/antagonist activity of test compounds when compared to benchmark compounds enzalutamide or bicalutamide. […] The lack of agonist activity is desirable for therapies intended to treat CRPC. For B4 and B6, a score of 1 indicates less agonism (highly desired activity) than benchmark compound enzalutamide, a score of 2 indicates equal agonism to enzalutamide (desirable), a score of 3 indicates agonism between enzalutamide and bicalutamide (less desirable activity), a score of 4 indicates equal agonism to bicalutamide (liability), and a score of 5 indicates higher agonism than bicalutamide (liability). For B5 and B7 a score of 1 indicates higher antagonist efficacy (highly desired activity) than benchmark compound enzalutamide, a score of 2 indicates equal antagonist efficacy to enzalutamide (desirable), a score of 3 indicates antagonist efficacy between enzalutamide and bicalutamide (less desirable activity), a score of 4 indicates antagonist efficacy equal to bicalutamide (liability), and a score of 5 indicates antagonist efficacy worse than bicalutamide (liability) For B9, Compounds that degrade AR (greater than 50% degradation at 10 μM) are indicated.

[2] = test system: CV1 cells; experiment: Toxicity of test compound in the CV1 reporter gene assay (Renilla-Luc)
Experimental: Reporter Gene Assay (IC50 determination, Table 2, B1-B3). CV1 cells were seeded into 96-well cell culture plates and transfected with Lipofectin. For AR transcriptional assays, the DNA mixture consisted of pcDNA-AR, MMTV-Luc (androgen responsive reporter gene), and Renilla-Luc (for assessing transfection efficiency and toxicity). Following overnight incubation, cells were induced with hormone (0.1 nM R1881 (synthetic AR agonist) plus increasing concentrations of test compound) for 24 hrs. Cells were lysed and luciferase activity was quantified using Dual Luciferase Reagent (DLR). IC50 determination was assessed using GraphPad Prism software.

[3] = target: T1, AR (Homo sapiens, UniProt P10275); experiment: Reporter gene assay, AR transcriptional (MMTV-Luc) in CV1 cells; details: pcDNA-AR + MMTV-Luc, 0.1 nM R1881 plus test compound, 24 hrs, read-out: B1 = AR transcriptional IC50 (μM) in CV1 cells
T1 construct: expressed in transfected cells; host or cells: CV1 cells
T1 sequence (P10275 1-920): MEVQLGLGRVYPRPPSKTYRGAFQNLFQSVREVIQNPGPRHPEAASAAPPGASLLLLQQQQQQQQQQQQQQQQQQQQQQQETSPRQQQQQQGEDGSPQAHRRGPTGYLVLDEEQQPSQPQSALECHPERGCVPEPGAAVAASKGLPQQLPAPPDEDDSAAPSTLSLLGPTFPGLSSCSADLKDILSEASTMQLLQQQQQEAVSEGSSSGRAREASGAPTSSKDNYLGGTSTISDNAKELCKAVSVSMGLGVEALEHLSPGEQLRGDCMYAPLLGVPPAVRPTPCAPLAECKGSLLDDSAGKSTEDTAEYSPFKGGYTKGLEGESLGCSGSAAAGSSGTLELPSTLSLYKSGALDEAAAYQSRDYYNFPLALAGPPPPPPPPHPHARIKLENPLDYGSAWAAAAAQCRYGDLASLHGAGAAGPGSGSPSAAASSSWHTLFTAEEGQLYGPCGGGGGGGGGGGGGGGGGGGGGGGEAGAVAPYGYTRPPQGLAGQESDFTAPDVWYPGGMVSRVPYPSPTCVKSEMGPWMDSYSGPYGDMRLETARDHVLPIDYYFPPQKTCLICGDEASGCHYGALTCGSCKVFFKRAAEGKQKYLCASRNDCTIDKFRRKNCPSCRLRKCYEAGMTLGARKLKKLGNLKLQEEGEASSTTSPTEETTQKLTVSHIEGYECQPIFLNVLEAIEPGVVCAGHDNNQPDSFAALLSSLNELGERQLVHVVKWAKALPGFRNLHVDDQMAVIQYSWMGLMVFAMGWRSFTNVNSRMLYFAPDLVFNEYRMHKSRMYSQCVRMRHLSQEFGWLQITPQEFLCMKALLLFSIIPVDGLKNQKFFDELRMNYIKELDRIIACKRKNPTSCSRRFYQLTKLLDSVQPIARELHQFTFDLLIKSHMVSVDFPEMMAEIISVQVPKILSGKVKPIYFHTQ
How it was run: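 CV1 cells transiently co-transfected with human AR, MMTV-Luc reporter and Renilla-Luc (transfection efficiency and toxicity read-out), then stimulated 24 h with 0.1 nM R1881 plus increasing test compound concentrations. Firefly and Renilla luciferase quantified by dual-luciferase assay; IC50 derived from concentration-response.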

[4] = target: T2, AR (Homo sapiens, UniProt P10275, T878A); experiment: In Cell Western AR degradation assay in LNCaP cells; details: 18 hrs, greater than 50% degradation at 10 μM (method says 20 μM)
T2 construct: endogenous in cells; host or cells: LNCaP cells
T2 sequence (P10275 1-920 T878A): T1 sequence (P10275 1-920) with T878A
How it was run: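 After 48 h plating in RPMI with 8% CFS, LNCaP cells were exposed to 20 μM test compound for 18 h, fixed with 3.7% formaldehyde and permeabilized. AR was detected with anti-AR N20 antibody and an infrared secondary, imaged by LI-COR Odyssey and normalized to DRAQ5 DNA stain.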

| SMILES | agonist activity in AR overexpressing LNCaP cells (model of CRPC) ([1]; benchmark compounds, AR overexpressing LNCaP cells) | B2 = % Toxicity of test compound (20 μM) [2] [%] | B3 = % Toxicity of test compound (60 μM) [2] [%] | B4 = Relative agonist activity (no R1881) of test compounds (20 μM) in AR overexpressing LNCaP cells (NKX3.1 AR target gene) [1] | B6 Relative agonist activity (no R1881) of test compounds (20 μM) in AR overexpressing LNCaP cells (PSA AR target gene) [1] | B5 = Relative antagonist activity (plus 0.1 nM R1881) of test compounds (20 μM) in AR overexpressing LNCaP cells (NKX3.1 AR target gene) [1] | B7 = Relative antagonist activity (plus 0.1 nM R1881) of test compounds (20 μM) in AR overexpressing LNCaP cells (PSA AR target gene) [1] | IC50 [3] [µM] | B9 = AR degradation in LNCaP cells (In-Cell Western) [4] |
| --- | --- | --- | --- | --- | --- | --- | --- | --- | --- |
| CNC(=O)c1ccc(N2C(=S)N(c3ccc(C#N)c(C(F)(F)F)c3)C(=O)C2(C)C)cc1F [Enzalutamide, enzalutamide, reference compound] | does not possess agonist activity | – | – | – | – | – | – | – | – |
| CC1(C)CC(=O)C2=C(C1)Nc1ccc3ccccc3c1C2c1ccncc1 (stereo not shown) [Compound A12] | – | 0 | 94 | 1 | 1 | 2 | 3 | 8.6 | – |
| O=C1CCCC2=C1C(c1ccc([N+](=O)[O-])cc1)c1c(ccc3ncccc13)N2 (stereo not shown) [Compound A18] | – | 0 | 22 | – | 1 | – | 2 | > 10 | – |
| CC1(C)CC(=O)C2=C(C1)Nc1ccc3ccccc3c1C2c1ccc(C#N)cc1 (stereo not shown) [Compound A3] | – | 0 | 24 | 1 | 1 | 1 | 1 | 1.6 | – |
| Cn1c(=O)n(C)c2cc(C3C4=C(CC(C)(C)CC4=O)Nc4ccc5ccccc5c43)ccc21 (stereo not shown) [Compound A8] | – | 0 | 0 | 2 | 1 | 1 | 1 | 5.3 | – |
| O=C1CCCC2=C1C(c1ccc(Cl)cc1Cl)c1c(ccc3ccccc13)N2 (stereo not shown) [Compound A7] | – | 75 | 91 | 1 | 1 | 2 | 1 | 3.8 | – |
| CC1(C)CC(=O)C2=C(C1)Nc1ccc3ncccc3c1C2c1nccs1 (stereo not shown) [Compound A67] | – | – | – | – | – | – | – | > 10 | Degrader (Compounds that degrade AR (greater than 50% degradation at 10 μM) are indicated) |
| CC1(C)CC(=O)C2=C(C1)Nc1ccc3ncccc3c1C2c1ccc(C#N)c(F)c1 (stereo not shown) [Compound A72] | – | – | – | – | – | – | – | 7.7 | Degrader (Compounds that degrade AR (greater than 50% degradation at 10 μM) are indicated) |
| CC1(C)CC(=O)C2=C(C1)Nc1ccc3ncccc3c1C2c1cccc(C(F)(F)F)c1 (stereo not shown) [Compound A70] | – | – | – | – | – | – | – | > 10 | Degrader (Compounds that degrade AR (greater than 50% degradation at 10 μM) are indicated) |
